Assays:
Dmel\Orco + Dmel\Or35a [1] = biological target: T1, Dmel\Orco + Dmel\Or35a (Drosophila melanogaster, UniProt Q9VNB5); assay: Agonist activation of Dmel\Orco + Dmel\Or35a in Xenopus oocytes, two-electrode voltage clamp; assay type: cell-based; conditions: for Response amplitude as percentage of response to 100 µM OLC3, Dmel\Orco + Dmel\Or35a: 100 µM compound, mean ± SEM, n=3-8
T1 construct: expressed in transfected cells; host or cells: Xenopus laevis oocytes (cRNA injection, pGEMHE)
T1 sequence (Q9VNB5 1-486): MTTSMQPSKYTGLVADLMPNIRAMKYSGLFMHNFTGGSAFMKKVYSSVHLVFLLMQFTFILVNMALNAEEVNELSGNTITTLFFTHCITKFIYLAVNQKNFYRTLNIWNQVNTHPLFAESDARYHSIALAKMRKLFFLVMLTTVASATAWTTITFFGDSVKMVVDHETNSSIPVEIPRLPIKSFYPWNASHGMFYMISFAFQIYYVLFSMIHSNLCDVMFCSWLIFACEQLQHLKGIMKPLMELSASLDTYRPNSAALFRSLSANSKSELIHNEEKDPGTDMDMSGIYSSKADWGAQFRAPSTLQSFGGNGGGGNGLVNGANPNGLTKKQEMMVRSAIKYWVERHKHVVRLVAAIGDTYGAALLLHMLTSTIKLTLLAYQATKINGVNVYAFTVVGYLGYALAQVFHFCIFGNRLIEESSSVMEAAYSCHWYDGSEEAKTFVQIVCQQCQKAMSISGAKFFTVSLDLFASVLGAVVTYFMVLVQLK
T1 sequence (Q9V3Q2 1-409 partner): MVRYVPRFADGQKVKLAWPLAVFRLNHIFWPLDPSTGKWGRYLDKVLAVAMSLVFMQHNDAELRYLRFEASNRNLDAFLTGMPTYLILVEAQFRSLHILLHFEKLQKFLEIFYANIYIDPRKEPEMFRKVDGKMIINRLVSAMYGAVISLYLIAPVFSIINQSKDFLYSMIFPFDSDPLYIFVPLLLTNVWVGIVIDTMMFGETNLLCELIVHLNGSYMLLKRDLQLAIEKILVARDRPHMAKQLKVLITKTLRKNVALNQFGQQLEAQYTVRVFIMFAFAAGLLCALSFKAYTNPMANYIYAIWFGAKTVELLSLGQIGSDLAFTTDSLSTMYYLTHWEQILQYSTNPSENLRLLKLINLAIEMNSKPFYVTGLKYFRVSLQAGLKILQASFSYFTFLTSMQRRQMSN
Method: (§1) Oocytes were surgically removed from mature Xenopus laevis frogs. Follicle cells were removed by treatment with Collagenase B (Boehringer Mannhem) for 2 hours at room temperature. Capped cRNA encoding each DmOR subunit was generated using mMessage mMachine kits (Ambion). For heteromeric ORs, 25 ng of cRNA encoding each OR subunit was injected into Stage V-VI Xenopus oocytes. For expression of Orco alone, 50 ng of cRNA was injected. Oocytes were incubated at 18°C in Barth’s saline (in mM: 88 NaCl, 1 KCl, 2.4 NaHCO3, 0.3 CaNO3, 0.41 CaCl2, 0.82 MgSO4, 15 HEPES, pH 7.6, and 150 µg/ml ceftazidime) for 2–5 days prior to electrophysiological recording.
(§2) Odorant and Orco ligand induced currents were recorded under two-electrode voltage clamp in Xenopus laevis oocytes expressing ORs, using an automated parallel electrophysiology system (OpusExpress 6000A; Molecular Devices). Oocytes were perfused with ND96 (in mM: 96 NaCl, 2 KCl, 1 CaCl2, 1 MgCl2, 5 HEPES, pH 7.5). Odorant stock solutions (0.5 or 1 M) and Orco ligand stock solutions (100 mM) were prepared in DMSO and diluted in ND96. Unless otherwise noted, applications were for 60 sec at a flow rate of 1.0 ml/min, with extensive washing in ND96 (9 or 20 min at 4.6 ml/min) between applications. Micropipettes were filled with 3 M KCl and had resistances of 0.2−2.0 MΩ. The holding potential was −70 mV. Current responses, filtered (4-pole, Bessel, low pass) at 20 Hz (−3 db) and sampled at 100 Hz, were captured and stored using OpusXpress 1.1 software (Molecular Devices).
(§3) Initial analysis of electrophysiological data was done using Clampfit 9.1 software (Molecular Devices). Curve fitting and statistical analyses were done using Prism 5 (Graphpad). Concentration-response data were fit to the equation: I = Imax/(1+(EC50/X)^n) where I represents the current response at a given concentration of odorant, X; Imax is the maximal response; EC50 is the concentration of agonist yielding a half maximal response; n is the apparent Hill coefficient. Concentration-inhibition data were fit to the equation: I = Imax/(1+(X/IC50)^n) where I represents the current response at a given concentration of inhibitor, X; Imax is the maximal response in the absence of inhibitor; IC50 is the concentration of inhibitor present that still allows a half maximal response from odorant; n is the apparent Hill coefficient. Statistical significance was assessed using a two-tailed unpaired t test, an F test, or a one-way analysis of variance followed by the Bonferroni’s post-test, as appropriate.

Dmel\Orco [2] = biological target: T2, Dmel\Orco (Drosophila melanogaster, UniProt Q9VNB5); assay: Agonist activation of homomeric Dmel\Orco in Xenopus oocytes, two-electrode voltage clamp; assay type: cell-based; conditions: for Response amplitude as percentage of response to 100 µM OLC3, Dmel\Orco: 100 µM compound, mean ± SEM, n=3-8
T2 construct: expressed in transfected cells; host or cells: Xenopus laevis oocytes (cRNA injection, pGEMHE)
T2 sequence (Q9VNB5 1-486): T1 sequence (Q9VNB5 1-486)
Method: as §1, §2, §3

Cqui\Orco + Cqui\Or10 = Cqui\Orco + Cqui\Or10 (Culex quinquefasciatus, UniProt D5LMR7+Q309I4); assay: Activation of Cqui\Orco + Cqui\Or10 in Xenopus oocytes, two-electrode voltage clamp; assay type: cell-based; conditions: 100 µM compound, mean ± SEM, n=3-8
Method: as §1, §2, §3

Cqui\Orco = assay: Agonist activation of homomeric Cqui\Orco in Xenopus oocytes, two-electrode voltage clamp; assay type: cell-based, Culex quinquefasciatus; conditions: 100 µM compound; mean ± SEM, n=3-8
Onub\Orco + Onub\Or1 = assay: Agonist activation of Onub\Orco + Onub\Or1 in Xenopus oocytes, two-electrode voltage clamp; assay type: cell-based, Ostrinia nubilalis; conditions: 100 µM compound; mean ± SEM, n=3-8
Dmel\Orco [3] = biological target: T2, Dmel\Orco; assay: Inhibition of OLC12 activation of Dmel\Orco in Xenopus oocytes; assay type: cell-based
Method: as §1, §2
(§4) In inhibition assays, oocytes were exposed to 60 sec applications of OLC12 with 9 min washes between applications (Fig. 3 and 4) or 60 sec applications of odorant with 20 min washes between applications (Fig. 5). Oocytes were then exposed to a 90 sec application of antagonist candidate, immediately followed by a 60 sec co-application of antagonist candidate and OLC12 or odorant. Oocytes were then exposed to a final 60 sec application of OLC12 or odorant. The current response in the presence of antagonist candidate was compared to the preceding response(s) to OLC12 (or odorant) alone.
as §3

Dmel\Orco + Dmel\Or35a [4] = biological target: T1, Dmel\Orco + Dmel\Or35a; assay: Inhibition of OLC12 activation of Dmel\Orco + Dmel\Or35a in Xenopus oocytes; assay type: cell-based; conditions: activated by 10 µM OLC12 (EC25); read-out: IC50, Dmel\Orco + Dmel\Or35a (activated by 10 µM OLC12)
Method: as §1, §2, §4, §3

Cqui\Orco + Cqui\Or10, sequence (D5LMR7 entry or part of it): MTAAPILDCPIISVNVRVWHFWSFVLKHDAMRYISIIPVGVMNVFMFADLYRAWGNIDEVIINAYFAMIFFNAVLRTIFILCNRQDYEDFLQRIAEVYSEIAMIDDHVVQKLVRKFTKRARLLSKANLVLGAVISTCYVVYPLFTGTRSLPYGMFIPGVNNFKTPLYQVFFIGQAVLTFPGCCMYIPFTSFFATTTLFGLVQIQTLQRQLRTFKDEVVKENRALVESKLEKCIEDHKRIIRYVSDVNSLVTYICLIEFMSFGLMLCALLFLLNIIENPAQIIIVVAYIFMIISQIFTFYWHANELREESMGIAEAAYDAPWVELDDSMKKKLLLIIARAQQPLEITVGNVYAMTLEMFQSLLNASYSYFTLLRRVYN
Cqui\Orco + Cqui\Or10, sequence (Q309I4 entry or part of it): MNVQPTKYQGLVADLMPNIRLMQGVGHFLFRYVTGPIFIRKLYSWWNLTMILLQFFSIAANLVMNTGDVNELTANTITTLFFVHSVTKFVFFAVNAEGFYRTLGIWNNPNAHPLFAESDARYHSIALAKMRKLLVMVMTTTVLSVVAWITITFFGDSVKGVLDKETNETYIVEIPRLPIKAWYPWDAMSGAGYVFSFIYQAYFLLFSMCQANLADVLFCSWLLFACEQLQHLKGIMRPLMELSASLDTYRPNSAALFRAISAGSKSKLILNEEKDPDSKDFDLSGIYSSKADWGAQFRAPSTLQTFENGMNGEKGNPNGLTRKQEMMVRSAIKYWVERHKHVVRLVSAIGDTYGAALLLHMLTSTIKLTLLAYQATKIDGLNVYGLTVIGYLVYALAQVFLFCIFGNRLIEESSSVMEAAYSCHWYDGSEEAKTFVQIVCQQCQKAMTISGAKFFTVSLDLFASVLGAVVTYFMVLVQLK

Compound	Response amplitude as percentage of response to 100 µM OLC3, Dmel\Orco + Dmel\Or35a (Dmel\Orco + Dmel\Or35a [1])	Response amplitude as percentage of response to 100 µM OLC3, Dmel\Orco (Dmel\Orco [2])	Response amplitude as percentage of response to 100 µM OLC3, Cqui\Orco + Cqui\Or10 (Cqui\Orco + Cqui\Or10)	Response amplitude as percentage of response to 100 µM OLC3, Cqui\Orco (Cqui\Orco)	Response amplitude as percentage of response to 100 µM OLC3, Onub\Orco + Onub\Or1 (Onub\Orco + Onub\Or1)	Inhibition of activation of Dmel\Orco by 30 µM OLC12 on co-application (Dmel\Orco [3]; 100 µM compound co-applied with 30 µM OLC12)	Emax at 100 µM (Dmel\Orco + Dmel\Or35a [1]; read-out: Response amplitude as percentage of response to 100 µM OLC3, Dmel\Orco + Dmel\Or35a)	Emax at 100 µM (Dmel\Orco [2]; read-out: Response amplitude as percentage of response to 100 µM OLC3, Dmel\Orco)	Emax at 100 µM (Cqui\Orco + Cqui\Or10; read-out: Response amplitude as percentage of response to 100 µM OLC3, Cqui\Orco + Cqui\Or10)	IC50 (Dmel\Orco + Dmel\Or35a [4])	IC50 (Dmel\Orco [3]; activated by 30 µM OLC12 (EC39))
CCc1ccc(NC(=O)CSc2nnc(-c3cnccn3)n2CC)cc1 [OLC4]	4 ± 1%	0%	0%	0%	4 ± 2%						
CCn1c(SCC(=O)Nc2ccc(C)cc2)nnc1-c1cccnc1 [OLC5]	4 ± 1%	0%	16 ± 2%	0%	4 ± 2%						
CCn1c(SCC(=O)Nc2cccc(C)c2)nnc1-c1cccnc1 [OLC6]	0%	0%	0%	4 ± 2%	0%						
CCn1c(SCC(=O)Nc2ccc(OC)cc2)nnc1-c1cccnc1 [OLC7]	4 ± 1%	0%	4 ± 1%	4 ± 2%	0%						
CCc1ccccc1NC(=O)CSc1nnc(-c2cccnc2)n1CC [OLC8]	0%	0%	0%	5 ± 3%	0%	fails to block					
CCCCc1ccc(NC(=O)CSc2nnc(-c3cccnc3)n2CC)cc1 [OLC9]				0%	3 ± 1%		5 ± 2%	0%	0%	40 ± 9 µM	69 ± 7 µM
CCn1c(SCC(=O)Nc2ccc(Br)cc2)nnc1-c1cccnc1 [OLC10]	25 ± 7%	0%	27 ± 16%	0%							
CCn1c(SCC(=O)Nc2ccc(Cl)cc2)nnc1-c1cccnc1 [OLC11]	13 ± 2%	0%	13 ± 3%	0%							
CCn1c(SCC(=O)Nc2ccc(C)c(C)c2)nnc1-c1ccncc1 [OLC13]	0%	0%	0%	0%							
